Reference: patent US5670520A, “Method for inhibiting virus replication in mammalian cells using carbostyil derivatives” (Otsuka Pharmaceutical Co., Ltd., priority 1996, dated 1997)

Experiments:
[1] = system: HIV-1 strain 18a (AZT-sensitive); assay: microbe, parasite or virus in culture; details: Human immunodeficiency virus 1, PBMC, 120 h, read-out: IC50, p24 production
Method: (§1) More specifically, PBMC were incubated for 48 hr with 3.0 μg/ml of PHA and 10 U/ml of IL-2. Then, 10-100 TCID50 virus/ml of clinical isolate strains of HIV-1, 18a (AZT-sensitive) or 18c (AZT-resistant), were added. […] After 5 days of infection, the supernatant was collected and HIV-1 p24 antigen was measured using the p24 ELISA kit (NEN Dupont).
(§2) The combination index (CI) was calculated using multiple drug effect analysis of Chou and Tala, as described by Johnson et al, J. Infect. Dis., 159:837-844 (1989). CI values of <1, =1, and >1, indicate synergism, additive effects, and antagonism, respectively.

[2] = system: HIV-1 strain 18c (AZT-resistant); assay: HIV-1 p24 antigen production by infected PBMC, strain 18c; format: cell-based; details: Human immunodeficiency virus 1, 120 h; 18c infected PBMC, 5 days, AZT alone
Method: as §1, §2

U937 cells [3] = assay: Intracellular AZT-MP, AZT-DP, AZT-TP in U937 cells by HPLC; details: U937 cells, 5.0 μCi/ml [3H]AZT, 2 hr
Method: 1.0 ml fractions were collected, and the radioactivity was measured by liquid scintillation. The retention time for AZT and AZT-MP was confirmed using cold AZT and AZT-MP (Sigma) under the same conditions.
Intracellular concentrations of [^3 H]AZT-MP, [^3 H]AZT-DP, and [^3 H]AZT-TP were measured using HPLC as described above.

[4] = MTT cell viability of MRC5 cells; format: cell-based; details: human, mrc5 cells, read-out: MTT Cell Viability (% of control)
Method: More specifically, 5.0 μg/ml of MTT in Eagles MEM supplemented with 2.0% (v/v) fetal bovine serum was added to each well, and incubated at 37° C. for 6 hr. The cells were then solubilized by adding 30% (w/v) SDS in 0.02N HCl. The cultures were incubated overnight at 37° C. Then, the optical density was measured at 570 nm on a spectrophotometer.

CMV strain AD169 = assay: CMV plaque reduction assay in MRC5 cells; format: cell-based; details: Human betaherpesvirus 5, AD169, MRC5, 168 h; single compound assay, regression analysis; read-out: MIC50 (minimum concentration that reduces plaque production by 50%)
Method: More specifically, subconfluent monolayers of MRC5 cells (Biowhittaker, Walkersville, Md.) in 12-well tissue culture plates were exposed to a suspension of a 1:500 dilution of stock virus (CMV strain AD169; ATCC No. VR-538) in Eagles Minimal Essential Medium (MEM) supplemented with 2.0% (v/v) fetal bovine serum, for 2 hr at 37° C. to allow for virus absorption. The fluid containing unabsorbed virus was then removed, and the cell layer rinsed with Eagles MEM without serum.
The minimum compound concentration that reduces plaque production by 50% (MIC50) was calculated from single compound assays by using a regression analysis program for semilog curve fitting.
The following formula of additivity, which is appropriate for inhibitors affecting different sites, was used.

EBV = assay: In situ hybridization of EBV DNA in anti-IgG stimulated DMSO-released Akata cells; format: cell-based, Epstein-Barr virus; details: 20 hrs after 50 μg/ml anti-IgG; vesnarinone 0-100 μg/ml; acyclovir pretreatment
Method: The human Burkitt's lymphoma cell line, Akata, provided by Dr. Kenzo Takada (Takada, Int. J. Cancer, 33:27-32 (1984); and Takada et al, Virus Genes, 5:147-156 (1991)), was cultured at 37° C. in RPMI 1640 medium supplemented with 15% (v/v) heat-inactivated FCS, and 20 μg/ml gentamicin.
The cell progression of Akata cells was arrested by culturing of the cells for 96 hrs in the presence of 1.5% (y/v) DMSO (Sigma, St. Louis, Mo.) (Sawai et al, Exp. Cell Res., 187:4-10 (1990); and Takase et al, Cell Growth Differ., 3:515-521 (1992)).
1 hr after transfer (release from DMSO), a goat F(ab')2 fragment of anti-human IgG antibody (Organon Teknika, Durham, N.C.) was added at a concentration of 50 μg/ml to induce productive EBV replication (Takagi et al, Virology, 185:309-315 (1991)).
3 hrs and 20 hrs after treatment with the anti-IgG, the cells were harvested for flow cytometric detection of the BamHI Z replication activator (ZEBRA), and for in situ detection of EBV DNA, respectively. […]
More specifically, cells coated on a glass slide were fixed in acetone at room temperature for 10 min. […] Positivity for EBV DNA was determined by the presence of red-colored grains and at least 1000 cells were examined under light microscopy. […]

human T cells [5] = assay: 30 min [3H]thymidine, [3H]uridine and [3H]amino acid incorporation; format: cell-based; details: 30 min label; 250 μM vesnarinone, 15 nM aphidicolin or 100 μM deferoxamine
Method: Next, the PHA-stimulated T cells were labelled for 30 min with 5.0 μCi/ml of an [^3 H]amino acid mixture (1.0 mCi/ml, Amersham, Arlington Heights, Ill.), washed twice with ice-cold PBS, and then lysed in PBS containing 1.0% (w/v) SDS, followed by addition of a mixture of 7.0% (w/v) trichloroacetic acid and 1.0% (w/v) pyrophosphate. The precipitates were loaded on GF/A filters, and washed extensively with a mixture of 7.0% (w/v) trichloroacetic acid and 1.0% (w/v) pyrophosphate. Radioactivity was measured by scintillation counting.

human T cells [6] = assay: Cell numbers of PHA-stimulated human T cells over 120 hrs; format: cell-based; details: 10 μg/ml PHA, 0-120 hrs; 250 μM vesnarinone, 15 nM aphidicolin or 100 μM deferoxamine
Method: Next, the effects of the above-described drugs on cell proliferation were evaluated over a period of 120 hrs.

human T cells [7] = assay: [3H]thymidine incorporation by PHA-stimulated human T cells; format: cell-based; details: 10 μg/ml PHA 48 hrs; 15 nM aphidicolin or 100 μM deferoxamine (FIG. 1B)
Method: More specifically, human primary T cells were separated from peripheral blood obtained by leukopheresis of healthy donors. Mononuclear cell suspensions were prepared by Ficoll-Hypaque gradient centrifugation, and T cells were obtained by E-rosette enrichment as described by Kumagai et al, J. Cell. Physiol., 137:329 (1988).
Then, 1.0 μCi of [^3 H]thymidine (6.7 Ci/mmole, ICN), was added to 2.0×10^6 cells (100 μl), and the cells were pulse-labeled for 6 hrs.

[8] = system: nucleoside and nucleobase transport in human T cells; assay: [3H]nucleoside / [3H]nucleobase transport, 1 min pulse, T cells; format: cell-based; details: 250 μM vesnarinone, 100 μM deferoxamine, 15 nM aphidicolin or 1.0 μM dipyridamole
U937 cells [9] = assay: [3H]thymidine uptake in U937 cells within 1 min; format: cell-based, human
Method: Dipyridamole was prepared as a 50 mM stock solution dissolved in ethanol.

CHO cells [10] = assay: Rescue of CHO cells from cytostatic effects of 5-FUd; format: cell-based, Chinese hamster; details: 50 nM 5-FUd, 120 hrs; 0-250 μM vesnarinone or 1.0-10 μM dipyridamole
Description: Nucleoside transport inhibitors, such as dipyridamole or NBMPR, are known to rescue cell proliferation from the cytotoxic effects of 5-fluorouridine(5-FUd) or high dose thymidine, by inhibiting transport of this cytotoxic nucleoside analog or thymidine (Aronow et al, Mol. Cell Biol., 6:2957-2962 (1986)).

U937 cells [11] = assay: Intracellular phosphorylated AZT in U937 cells (DEAE filter); details: 0-250 μM vesnarinone or 0-100 nM dipyridamole; 2 hr
Raji cells = assay: [3H]adenosine / [3H]adenine transport in Raji cells; details: 0-750 μM vesnarinone or 0-100 μM dipyridamole, 1 min pulse
CHO cells [12] = assay: [3H]adenosine / [3H]adenine transport in CHO cells; details: 0-750 μM vesnarinone or 0-100 μM dipyridamole, 1 min pulse
[13] = in vivo; cited from earlier work

Structure (SMILES): Cc1cn([C@H]2C[C@H](N=[N+]=[N-])[C@@H](CO)O2)c(=O)[nH]c1=O [AZT, 3'azido-3'-deoxythymidine]
- IC50 [1]: 0.67 nM
- IC50 [2]: > 640 nM
- intracellular phosphorylation of AZT (U937 cells [3]): phosphorylated to AZT-MP, but poorly phosphorylated beyond this stage to the diphosphate form

Structure (SMILES): Nc1nc2c(ncn2COC(CO)CO)c(=O)[nH]1 [DHPG, 9-(1,3-dihydroxy-2-propoxymethyl) guanine, reference compound]
- viability at 0.625 µM ([4]; DHPG 0.625 μM alone): 100%
- viability at 1.25 µM ([4]; DHPG 1.250 μM alone): 100%
- viability at 5 µM ([4]; DHPG 5.000 μM alone): 100%
- EC50 (CMV strain AD169): > 5 µM

Structure (SMILES): Nc1nc2c(ncn2COCCO)c(=O)[nH]1 [acyclovir, 9-[(2-hydroxyethoxy)methyl]guanine, reference compound]
- population of EBV producing cells (positivity for EBV DNA) (EBV): dramatically reduced by acyclovir pretreatment

Structure (SMILES): C[C@@]1(CO)[C@H](O)CC[C@@]2(C)[C@H]1CC[C@H]1C[C@@H]3C[C@@]12CC[C@]3(O)CO [aphidicolin]
- [3H]uridine incorporation, brief exposure (human T cells [5]): did not inhibit [^2 H]uridine incorporation
- cell proliferation (cell number) (human T cells [6]): no increases in cell number were observed
- [3H]thymidine incorporation (human T cells [7]): also inhibited [^3 H]thymidine incorporation
- transport of [3H]thymidine, [3H]adenosine, [3H]adenine, [3H]uracil [8]: had no effect on the transport of these nucleosides or nucleobases

Structure (SMILES): CC(=O)N(O)CCCCCNC(=O)CCC(=O)N(O)CCCCCNC(=O)CCC(=O)N(O)CCCCCN [deferoxamine]
- [3H]thymidine incorporation, brief exposure (human T cells [5]): only partially inhibited [^3 H]thymidine incorporation
- [3H]uridine incorporation, brief exposure (human T cells [5]): did not inhibit [^2 H]uridine incorporation
- cell proliferation (cell number) (human T cells [6]): no increases in cell number were observed
- [3H]thymidine incorporation (human T cells [7]): also inhibited [^3 H]thymidine incorporation
- transport of [3H]thymidine, [3H]adenosine, [3H]adenine, [3H]uracil [8]: had no effect on the transport of these nucleosides or nucleobases

Structure (SMILES): OCCN(CCO)c1nc(N2CCCCC2)c2nc(N(CCO)CCO)nc(N3CCCCC3)c2n1 [dipyridamole, reference compound]
- uptake of thymidine (U937 cells [9]; 0-250 μM vesnarinone or 0-1000 nM dipyridamole): inhibited the uptake of thymidine in a dose-dependent manner
- IC50 (U937 cells [9]; Homo sapiens, U-937, 1 min, U937 cells, within 1 min): < 10 nM
- reversal of cytostatic effects of 5-FUd (cell number) (CHO cells [10]): significantly reversed the cytostatic effects of 5-FUd
- intracellular concentration of phosphorylated AZT (U937 cells [11]): did not affect intracellular concentrations of phosphorylated AZT
- [3H]adenosine and [3H]adenine transport (Raji cells): inhibited adenosine transport in a selective fashion with no effect on adenine transport in its therapeutic range
- [3H]adenosine and [3H]adenine transport (CHO cells [12]): inhibited adenosine transport in a selective fashion with no effect on adenine transport in its therapeutic range
- therapeutic range [13]: 10 to 100 nM
- transport of [3H]thymidine, [3H]adenosine, [3H]adenine, [3H]uracil [8]: suppressed nucleoside transport, but not nucleobase transport
